Test results as given in ChEMBL document CHEMBL1134883, “Antimalarial activity of ferrocenyl chalcones” (Bioorg Med Chem Lett, 2002).

tested on: Plasmodium falciparum; experiment: Growth inhibition of chloroquine-resistant Plasmodium falciparum K1 by [3H]hypoxanthine uptake; type: functional, organism-based

Substance	IC50
1-(4-Ethoxyphenyl)-3-ferrocenyl-2-propen-1-one	200 µM
1-ferrocenyl-3-(3-Chlorophenyl)-2-propen-1-one	36.2 µM
1-(2-Hydroxyphenyl)-3-ferrocenyl-2-propen-1-one	73.5 µM
1-(4-Methoxyphenyl)-3-ferrocenyl-2-propen-1-one	410 µM
1-ferrocenyl-3-(2-Naphthalenyl)-2-propen-1-one	73.5 µM
1-ferrocenyl-3-(1-Naphthalenyl)-2-propen-1-one	48.3 µM
1-ferrocenyl-3-(4-Hydroxyphenyl)-2-propen-1-one	20.6 µM
1-ferrocenyl-3-(2,4-Dichlorophenyl)-2-propen-1-one	29.4 µM
1-(2,3,4-Trimethoxyphenyl)-3-ferrocenyl-2-propen-1-one	22.5 µM
1-(2,4-Dihydroxyphenyl)-3-ferrocenyl-2-propen-1-one	31.5 µM
1-ferrocenyl-3-(phenyl)-2-propen-1-one	19 µM
1-ferrocenyl-3-(3-Quinolinyl)-2-propen-1-one	18.2 µM
1-(4-Hydroxyphenyl)-3-ferrocenyl-2-propen-1-one	36 µM
1-(3-pyridyl)-3-ferrocenyl-2-propen-1-one	4.6 µM
1-ferrocenyl-3-(2-Chlorophenyl)-2-propen-1-one	42.4 µM
1-ferrocenyl-3-(4-Quinolinyl)-2-propen-1-one	14 µM

Substance	IC50
1-ferrocenyl-3-(2,4-Difluorophenyl)-2-propen-1-one	23.2 µM
1-ferrocenyl-3-(4-Methylphenyl)-2-propen-1-one	147 µM
1-ferrocenyl-3-(4-Cyanophenyl)-2-propen-1-one	26.5 µM
1-ferrocenyl-3-(3-pyridinyl)-2-propen-1-one	17 µM
1-ferrocenyl-3-(4-Methoxyphenyl)-2-propen-1-one	17 µM
1-ferrocenyl-3-(4-Nitrophenyl)-2-propen-1-one	5.1 µM
1-(phenyl)-3-ferrocenyl-2-propen-1-one	175 µM
1-ferrocenyl-3-(4-Fluorophenyl)-2-propen-1-one	12.1 µM
1-ferrocenyl-3-(2,4-Dimethoxyphenyl)-2-propen-1-one	18 µM
1-(4-Butoxyphenyl)-3-ferrocenyl-2-propen-1-one	80 µM
1-ferrocenyl-3-(4-Chlorophenyl)-2-propen-1-one	14.5 µM
1-ferrocenyl-3-(4-Trifluoromethylphenyl)-2-propen-1-one	58.4 µM
1-(2,4-Dimethoxyphenyl)-3-ferrocenyl-2-propen-1-one	24.5 µM
1-(2-Naphthalenyl)-3-ferrocenyl-2-propen-1-one	21 µM
1-(1-Naphthalenyl)-3-ferrocenyl-2-propen-1-one	47.4 µM
